In patent publication US20090176807A1, “GLUCOCORTICOID MIMETICS, METHODS OF MAKING THEM, PHARMACEUTICAL COMPOSITIONS, AND USES THEREOF” (priority 2005, published 2009):

How the values were obtained:
[1] = biological target: T1, human glucocorticoid receptor (GR) complex (Homo sapiens, UniProt P04150); experiment: Glucocorticoid receptor competitive binding assay (fluorescence polarization); settings: competition with TAMRA-labeled dexamethasone, result in words only
T1 construct: made in house; host or cells: insect expression system (baculovirus lysate)
T1 sequence (P04150 1-777): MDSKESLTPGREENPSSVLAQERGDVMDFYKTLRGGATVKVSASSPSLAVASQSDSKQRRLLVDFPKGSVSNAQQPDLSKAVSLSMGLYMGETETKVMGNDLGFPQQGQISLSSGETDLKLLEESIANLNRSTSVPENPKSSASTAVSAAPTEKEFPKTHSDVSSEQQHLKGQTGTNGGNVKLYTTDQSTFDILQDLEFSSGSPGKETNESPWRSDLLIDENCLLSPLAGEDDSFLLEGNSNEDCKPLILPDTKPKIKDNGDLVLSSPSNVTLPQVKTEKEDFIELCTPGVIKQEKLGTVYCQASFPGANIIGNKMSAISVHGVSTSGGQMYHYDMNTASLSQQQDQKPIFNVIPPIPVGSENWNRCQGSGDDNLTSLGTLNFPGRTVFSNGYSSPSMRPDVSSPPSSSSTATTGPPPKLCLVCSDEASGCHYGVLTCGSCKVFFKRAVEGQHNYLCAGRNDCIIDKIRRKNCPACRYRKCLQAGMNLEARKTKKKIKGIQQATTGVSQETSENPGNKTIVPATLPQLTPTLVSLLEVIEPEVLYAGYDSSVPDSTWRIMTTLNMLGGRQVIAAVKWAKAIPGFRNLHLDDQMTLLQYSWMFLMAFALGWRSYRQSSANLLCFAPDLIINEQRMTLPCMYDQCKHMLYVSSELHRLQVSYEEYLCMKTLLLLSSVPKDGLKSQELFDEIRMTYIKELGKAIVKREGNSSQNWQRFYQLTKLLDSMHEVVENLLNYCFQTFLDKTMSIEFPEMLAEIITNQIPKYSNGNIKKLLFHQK
Protocol: Compounds of the invention were evaluated for binding to the steroid receptor by a fluorescence polarization competitive binding assay.
The wavelengths for maximum excitation and emission of the fluorescent probe should first be measured. An example of such a probe is rhodamine (TAMRA)-labeled dexamethasone.
The affinity of the probe for the steroid receptor was then determined in a titration experiment. The fluorescence polarization value of the probe in assay buffer was measured on an SLM-8100 fluorometer using the excitation and emission maximum values described above. Aliquots of expression vector lysate were added and fluorescence polarization was measured after each addition until no further change in polarization value was observed. Non-linear least squares regression analysis was used to calculate the dissociation constant of the probe from the polarization values obtained for lysate binding to the probe.
This assay uses fluorescence polarization (FP) to quantitate the ability of test compounds to compete with tetramethyl rhodamine (TAMRA)-labeled dexamethasone for binding to a human glucocorticoid receptor (GR) complex prepared from an insect expression system. The assay buffer was: 10 mM TES, 50 mM KCl, 20 mM Na2MoO4.2H2O, 1.5 mM EDTA, 0.04% w/v CHAPS, 10% v/v glycerol, 1 mM dithiothreitol, pH 7.4. Test compounds were dissolved to 1 mM in neat DMSO and then further diluted to 10× assay concentration in assay buffer supplemented with 10% v/v DMSO. Test compounds were serially diluted at 10× assay concentrations in 10% DMSO-containing buffer in 96-well polypropylene plates. Binding reaction mixtures were prepared in 96-well black Dynex microtiter plates by sequential addition of the following assay components to each well: 15 μL of 10× test compound solution, 85 μL of GR-containing baculovirus lysate diluted 1:170 in assay buffer, and 50 μL of 15 nM TAMRA-labeled dexamethasone. Positive controls were reaction mixtures containing no test compound; negative controls (blanks) were reaction mixtures containing 0.7 μM to 2 μM dexamethasone. […] IC50 values were determined by iterative non-linear curve fitting of the FP signal data to a 4-parameter logistic equation.

[2] = tested on: Human osteosarcoma MG-63 cells; experiment: Inhibition of osteocalcin production from osteoblast cell line MG-63; format: cell-based; settings: Vitamin D 10 nM, 48 hours, osteocalcin ELISA, result in words only
Protocol: Human osteosarcoma MG-63 cells (ATCC, Cat. No. CRL-1427) are plated on 96 well plates at 20,000 cells per well the day before use in 200 μL media of 99% D-MEM/F-12 (Gibco-Invitrogen, Cat. No. 11039-021), supplemented with 1% penicillin and streptomycin (Gibco-Invitrogen, Cat. No. 15140-122), 10 μg/mL Vitamin C (Sigma, Cat. No. A-4544), and 1% charcoal filtered Fetal Bovine Serum (HyClone, Cat. No. SH30068.02). The next day, wells are replaced with fresh media. Cells are treated with Vitamin D (Sigma, Cat. No. D1530) to a final concentration of 10 nM, and with the test compounds in concentrations of 10^−6 M to 10^−9 M, in a total volume of 200 μL per well. Samples are done in duplicates. […] Positive control wells receive Vitamin D only, without compounds, and represent maximum (100%) amount of osteocalcin production. Plates are incubated at 37° C. incubator for 48 hours and supernatants are harvested at the end of incubation. Amounts of osteocalcin in the supernatants are determined by the Glype osteocalcin ELISA kit (Zymed, Cat. No. 99-0054) according to manufacture's protocol. Inhibition of osteocalcin by test compounds is expressed in percentage relative to positive controls. IC50 values of the test compounds are derived by non-lineal curve fitting.

activity in the GR binding assay [1]	melting point [°C]	SMILES	inhibition of the vitamin D stimulated production of osteocalcin [2]
potent activity	–	CC(C)(CC(O)(Cn1cc(Cl)c(=O)c2sccc21)C(F)(F)F)c1cc(-c2cccnc2)ccc1O (stereo not drawn) [6-Chloro-4-[2-hydroxy-4-(2-hydroxy-5-pyridin-3-ylphenyl)-4-methyl-2-trifluoromethylpentyl]-4H-thieno[3,2-b]pyridin-7-one]	inhibit the vitamin D stimulated production of osteocalcin
potent activity	–	CC(C)(CC(O)(Cn1cc(Cl)c(=O)c2sccc21)C(F)(F)F)c1cc(-c2cncnc2)ccc1O (stereo not drawn) [6-Chloro-4-[2-hydroxy-4-(2-hydroxy-5-pyrimidin-5-ylphenyl)-4-methyl-2-trifluoromethylpentyl]-4H-thieno[3,2-b]pyridin-7-one]	inhibit the vitamin D stimulated production of osteocalcin
potent activity	–	CC(C)(CC(O)(Cn1cc(Cl)c(=O)c2sccc21)C(F)(F)F)c1cc(-c2cccnc2)cc2c1OCC2 (stereo not drawn) [6-Chloro-4-[2-hydroxy-4-methyl-4-(5-pyridin-3-yl-2,3-dihydrobenzofuran-7-yl)-2-trifluoromethylpentyl]-4H-thieno[3,2-b]pyridin-7-one]	–

Continued, molecule first:

SMILES	activity in the GR binding assay [1]	melting point [°C]	inhibition of the vitamin D stimulated production of osteocalcin [2]
CC(C)(CC(O)(Cn1ccc(=O)c2sccc21)C(F)(F)F)c1cc(F)ccc1O (stereo not drawn) [4-[4-(5-Fluoro-2-hydroxyphenyl)-2-hydroxy-4-methyl-2-trifluoromethylpentyl]-4H-thieno[3,2-b]pyridin-7-one]	potent activity	–	inhibit the vitamin D stimulated production of osteocalcin
CC(C)(CC(O)(Cn1cc(Cl)c(=O)c2cnccc21)C(F)(F)F)c1cccc2c1OCC2 (stereo not drawn) [3-Chloro-1-[4-(2,3-dihydrobenzofuran-7-yl)-2-hydroxy-4-methyl-2-trifluoromethylpentyl]-1H-[1,6]naphthyridin-4-one]	potent activity	158 to 160	–
CC(C)(CC(O)(Cn1cc(Br)c(=O)c2sccc21)C(F)(F)F)c1cccc2c1OCO2 (stereo not drawn) [4-(4-Benzo[1,3]dioxol-4-yl-2-hydroxy-4-methyl-2-trifluoromethylpentyl)-6-bromo-4H-thieno[3,2-b]pyridin-7-one]	potent activity	197 to 198	–
CC(C)(CC(O)(Cn1ccc(=O)c2sccc21)C(F)(F)F)c1cc(-c2cccnc2)ccc1O (stereo not drawn) [4-[2-Hydroxy-4-(2-hydroxy-5-pyridin-3-ylphenyl)-4-methyl-2-trifluoromethylpentyl]-4H-thieno[3,2-b]pyridin-7-one]	potent activity	–	inhibit the vitamin D stimulated production of osteocalcin
CC(C)(CC(O)(Cn1ccc(=O)c2sccc21)C(F)(F)F)c1cccc(-c2ccccc2)c1 (stereo not drawn) [4-(4-Biphenyl-3-yl-2-hydroxy-4-methyl-2-trifluoromethylpentyl)-4H-thieno[3,2-b]pyridin-7-one]	potent activity	–	–
Cc1cccc(C(C)(C)CC(O)(Cn2ccc(=O)c3sccc32)C(F)(F)F)c1OC(F)F (stereo not drawn) [4-[4-(2-Difluoromethoxy-3-methylphenyl)-2-hydroxy-4-methyl-2-trifluoromethylpentyl]-4H-thieno[3,2-b]pyridin-7-one]	potent activity	–	–
